Experiments:
Format in all cases: cell-based
Conditions in all cases: 72 hours
HER2 GSP (Ba/F3 cells) = biological target: T1, HER2 GSP (Ba/F3 cells) (Homo sapiens, UniProt P04626, INS780GSP); experiment: MTS assay, Ba/F3 cells, HER2 GSP
T1 construct: expressed in transfected cells; host or cells: Ba/F3
Method: (§1) The IC50 values of the compounds provided herein were measured against kinases in Ba/F3 cells.
(§2) Activities of representative compounds of the present application in inhibiting EGFR and HER2 were tested by MTS assay (abcam®) for Ba/F3 cells. For assays with Ba/F3 cells, 3000 cells were seeded for per well in 96-well plates and were exposed to the indicated compounds with a concentration of 3.3 to 10 μM for 72 hours.

EFGR WT (Ba/F3 cells) = biological target: T2, EFGR WT (Ba/F3 cells) (Homo sapiens, UniProt P00533); experiment: MTS assay, Ba/F3 cells, EFGR WT
T2 construct: expressed in transfected cells; host or cells: Ba/F3
T2 sequence (P00533 25-1210): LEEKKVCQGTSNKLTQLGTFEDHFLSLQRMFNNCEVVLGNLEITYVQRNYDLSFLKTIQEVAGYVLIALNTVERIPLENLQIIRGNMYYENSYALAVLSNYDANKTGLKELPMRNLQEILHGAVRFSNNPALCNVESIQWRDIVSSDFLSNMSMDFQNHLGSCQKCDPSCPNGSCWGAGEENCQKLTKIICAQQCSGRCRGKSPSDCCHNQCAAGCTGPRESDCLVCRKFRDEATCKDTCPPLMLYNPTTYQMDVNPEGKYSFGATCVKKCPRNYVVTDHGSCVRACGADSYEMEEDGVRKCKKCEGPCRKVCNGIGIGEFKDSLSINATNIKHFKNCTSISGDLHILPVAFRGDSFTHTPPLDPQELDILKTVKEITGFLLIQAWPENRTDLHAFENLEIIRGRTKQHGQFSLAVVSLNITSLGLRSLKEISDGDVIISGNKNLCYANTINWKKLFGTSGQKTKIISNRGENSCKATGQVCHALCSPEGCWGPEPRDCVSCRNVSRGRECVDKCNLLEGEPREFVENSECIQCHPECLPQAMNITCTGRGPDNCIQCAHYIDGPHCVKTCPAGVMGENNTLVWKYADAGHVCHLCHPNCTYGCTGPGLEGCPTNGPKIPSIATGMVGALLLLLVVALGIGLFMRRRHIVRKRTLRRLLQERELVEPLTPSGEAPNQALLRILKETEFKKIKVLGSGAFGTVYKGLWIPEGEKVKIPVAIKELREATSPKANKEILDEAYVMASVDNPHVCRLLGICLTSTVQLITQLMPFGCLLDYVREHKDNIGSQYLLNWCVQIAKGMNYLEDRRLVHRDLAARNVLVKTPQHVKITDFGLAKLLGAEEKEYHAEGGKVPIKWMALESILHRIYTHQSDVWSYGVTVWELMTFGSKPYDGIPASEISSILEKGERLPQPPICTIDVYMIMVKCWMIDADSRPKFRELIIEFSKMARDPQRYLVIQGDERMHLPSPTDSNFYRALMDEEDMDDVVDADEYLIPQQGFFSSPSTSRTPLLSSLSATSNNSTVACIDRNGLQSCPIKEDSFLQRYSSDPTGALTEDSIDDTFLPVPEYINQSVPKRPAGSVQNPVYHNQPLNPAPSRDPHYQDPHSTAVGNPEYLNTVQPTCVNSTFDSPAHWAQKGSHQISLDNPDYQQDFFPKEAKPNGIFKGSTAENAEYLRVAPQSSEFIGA
Method: as §1, §2

EFGR SVD (Ba/F3 cells) = biological target: T3, EFGR SVD (Ba/F3 cells) (Homo sapiens, UniProt P00533, INS770SVD); experiment: MTS assay, Ba/F3 cells, EFGR SVD
T3 construct: expressed in transfected cells; host or cells: Ba/F3
Method: as §1, §2

HER2 YVMA (Ba/F3 cells) = biological target: T4, HER2 YVMA (Ba/F3 cells) (Homo sapiens, UniProt P04626, INS775YVMA); experiment: MTS assay, Ba/F3 cells, HER2 YVMA
T4 construct: expressed in transfected cells; host or cells: Ba/F3
T4 sequence (P04626 with tags, fused parts or gaps INS775YVMA): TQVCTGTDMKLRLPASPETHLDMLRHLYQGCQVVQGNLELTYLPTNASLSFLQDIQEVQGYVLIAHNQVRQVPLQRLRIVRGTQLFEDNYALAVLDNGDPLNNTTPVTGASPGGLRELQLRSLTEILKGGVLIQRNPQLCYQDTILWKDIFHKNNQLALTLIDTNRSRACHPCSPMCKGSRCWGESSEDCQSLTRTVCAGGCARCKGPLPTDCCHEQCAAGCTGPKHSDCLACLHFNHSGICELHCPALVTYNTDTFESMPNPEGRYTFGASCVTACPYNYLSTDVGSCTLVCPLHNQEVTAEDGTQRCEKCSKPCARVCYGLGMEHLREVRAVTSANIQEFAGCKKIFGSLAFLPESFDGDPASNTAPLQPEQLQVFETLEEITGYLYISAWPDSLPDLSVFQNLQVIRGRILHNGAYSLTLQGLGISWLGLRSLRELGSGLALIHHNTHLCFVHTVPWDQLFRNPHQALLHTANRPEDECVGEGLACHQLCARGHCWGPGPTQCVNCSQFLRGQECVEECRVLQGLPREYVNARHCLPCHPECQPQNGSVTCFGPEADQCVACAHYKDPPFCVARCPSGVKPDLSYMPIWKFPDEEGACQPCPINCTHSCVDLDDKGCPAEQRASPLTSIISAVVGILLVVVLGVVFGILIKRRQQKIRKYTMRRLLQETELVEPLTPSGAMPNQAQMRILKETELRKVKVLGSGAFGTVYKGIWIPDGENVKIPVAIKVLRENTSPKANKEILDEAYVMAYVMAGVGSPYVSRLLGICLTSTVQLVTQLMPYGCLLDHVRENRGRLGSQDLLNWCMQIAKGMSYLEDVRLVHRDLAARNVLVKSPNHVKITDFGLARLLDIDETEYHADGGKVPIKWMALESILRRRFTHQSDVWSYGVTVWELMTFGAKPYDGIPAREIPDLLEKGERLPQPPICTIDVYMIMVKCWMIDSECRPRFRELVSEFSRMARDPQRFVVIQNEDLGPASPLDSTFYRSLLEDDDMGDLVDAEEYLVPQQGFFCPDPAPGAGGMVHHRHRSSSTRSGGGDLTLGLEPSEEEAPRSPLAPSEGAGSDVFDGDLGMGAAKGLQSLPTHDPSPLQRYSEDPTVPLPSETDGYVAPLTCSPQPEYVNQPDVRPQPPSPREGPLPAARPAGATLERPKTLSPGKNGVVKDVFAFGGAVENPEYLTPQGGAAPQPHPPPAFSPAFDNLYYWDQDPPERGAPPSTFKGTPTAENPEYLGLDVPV
Method: as §1, §2

EFGR ASV (Ba/F3 cells) = biological target: T5, EFGR ASV (Ba/F3 cells) (Homo sapiens, UniProt P00533, INS769ASV); experiment: MTS assay, Ba/F3 cells, EFGR ASV
T5 construct: expressed in transfected cells; host or cells: Ba/F3
Method: as §1, §2

HER2 WT (Ba/F3 cells) = biological target: T6, HER2 WT (Ba/F3 cells) (Homo sapiens, UniProt P04626); experiment: MTS assay, Ba/F3 cells, HER2 WT
T6 construct: expressed in transfected cells; host or cells: Ba/F3
T6 sequence (P04626 23-1255): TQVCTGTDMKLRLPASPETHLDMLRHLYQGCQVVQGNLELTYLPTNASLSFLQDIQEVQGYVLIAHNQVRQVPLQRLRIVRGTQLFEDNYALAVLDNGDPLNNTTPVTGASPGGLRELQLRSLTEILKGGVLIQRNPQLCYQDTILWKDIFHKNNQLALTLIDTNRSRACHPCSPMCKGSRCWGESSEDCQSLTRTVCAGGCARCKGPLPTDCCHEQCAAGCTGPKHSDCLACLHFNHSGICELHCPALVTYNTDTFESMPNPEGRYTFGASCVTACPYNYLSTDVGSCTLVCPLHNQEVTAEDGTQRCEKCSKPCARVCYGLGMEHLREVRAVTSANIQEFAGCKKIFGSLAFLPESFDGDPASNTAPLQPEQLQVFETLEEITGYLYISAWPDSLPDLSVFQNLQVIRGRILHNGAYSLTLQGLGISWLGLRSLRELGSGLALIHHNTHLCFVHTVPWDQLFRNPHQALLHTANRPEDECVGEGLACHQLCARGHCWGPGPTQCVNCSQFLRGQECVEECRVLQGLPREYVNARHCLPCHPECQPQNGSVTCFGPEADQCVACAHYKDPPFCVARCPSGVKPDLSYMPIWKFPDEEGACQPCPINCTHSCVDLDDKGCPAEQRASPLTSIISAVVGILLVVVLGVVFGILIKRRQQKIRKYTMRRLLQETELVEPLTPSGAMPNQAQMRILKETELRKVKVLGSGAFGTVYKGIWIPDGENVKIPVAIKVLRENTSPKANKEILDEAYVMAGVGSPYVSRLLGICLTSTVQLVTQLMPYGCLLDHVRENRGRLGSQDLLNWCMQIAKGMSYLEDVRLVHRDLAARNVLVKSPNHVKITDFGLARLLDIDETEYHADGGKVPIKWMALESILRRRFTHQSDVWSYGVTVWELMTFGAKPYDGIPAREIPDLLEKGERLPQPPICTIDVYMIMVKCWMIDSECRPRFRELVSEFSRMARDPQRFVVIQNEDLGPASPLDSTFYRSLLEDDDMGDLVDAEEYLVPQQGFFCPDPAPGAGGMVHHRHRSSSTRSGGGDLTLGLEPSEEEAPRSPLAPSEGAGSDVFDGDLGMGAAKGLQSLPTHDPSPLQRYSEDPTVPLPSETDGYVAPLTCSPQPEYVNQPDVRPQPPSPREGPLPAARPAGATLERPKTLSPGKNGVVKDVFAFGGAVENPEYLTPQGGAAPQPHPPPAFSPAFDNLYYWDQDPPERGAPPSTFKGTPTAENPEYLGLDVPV
Method: as §1, §2

T1 sequence (P04626 with tags, fused parts or gaps INS780GSP): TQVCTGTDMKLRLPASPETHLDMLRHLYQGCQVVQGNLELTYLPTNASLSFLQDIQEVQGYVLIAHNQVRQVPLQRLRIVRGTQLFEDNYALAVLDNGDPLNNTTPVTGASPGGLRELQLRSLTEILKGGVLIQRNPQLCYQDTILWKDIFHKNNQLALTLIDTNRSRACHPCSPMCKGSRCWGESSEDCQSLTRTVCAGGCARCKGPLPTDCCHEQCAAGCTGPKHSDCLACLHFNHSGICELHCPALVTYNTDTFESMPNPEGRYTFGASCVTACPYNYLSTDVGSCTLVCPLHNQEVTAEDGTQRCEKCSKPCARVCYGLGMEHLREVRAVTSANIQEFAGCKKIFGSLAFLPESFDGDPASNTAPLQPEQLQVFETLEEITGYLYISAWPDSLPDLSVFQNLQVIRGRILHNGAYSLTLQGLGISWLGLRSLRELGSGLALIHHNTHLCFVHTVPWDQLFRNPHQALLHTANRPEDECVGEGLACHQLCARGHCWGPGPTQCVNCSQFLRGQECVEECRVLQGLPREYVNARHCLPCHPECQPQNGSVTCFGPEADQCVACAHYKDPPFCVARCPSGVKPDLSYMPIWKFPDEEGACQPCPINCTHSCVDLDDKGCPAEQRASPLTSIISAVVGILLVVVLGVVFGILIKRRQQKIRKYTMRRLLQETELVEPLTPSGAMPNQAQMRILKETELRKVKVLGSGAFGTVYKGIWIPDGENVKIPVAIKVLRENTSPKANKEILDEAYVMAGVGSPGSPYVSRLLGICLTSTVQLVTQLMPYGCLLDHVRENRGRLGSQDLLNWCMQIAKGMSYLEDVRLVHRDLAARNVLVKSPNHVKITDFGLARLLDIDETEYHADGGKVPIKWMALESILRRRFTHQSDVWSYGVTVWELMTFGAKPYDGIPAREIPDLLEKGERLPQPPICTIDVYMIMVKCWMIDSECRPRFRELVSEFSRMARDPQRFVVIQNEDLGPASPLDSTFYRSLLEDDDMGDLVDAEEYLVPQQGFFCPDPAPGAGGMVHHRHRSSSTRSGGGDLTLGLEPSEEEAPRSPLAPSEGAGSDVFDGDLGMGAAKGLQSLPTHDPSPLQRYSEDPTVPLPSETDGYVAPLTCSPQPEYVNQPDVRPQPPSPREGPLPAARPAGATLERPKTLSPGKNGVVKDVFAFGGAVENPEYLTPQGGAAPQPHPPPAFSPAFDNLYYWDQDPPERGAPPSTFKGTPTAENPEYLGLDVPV

Structure (SMILES)	IC50 (HER2 GSP (Ba/F3 cells)) [µM]	IC50 (EFGR WT (Ba/F3 cells)) [µM]	IC50 (EFGR SVD (Ba/F3 cells)) [µM]	IC50 (HER2 YVMA (Ba/F3 cells)) [µM]	IC50 (EFGR ASV (Ba/F3 cells)) [µM]	IC50 (HER2 WT (Ba/F3 cells)) [µM]
C=CC(=O)N1CCC[C@@H](n2nc(C(=O)Nc3ccc(Oc4ccn5ncnc5c4)c(C)c3C)c3c(N)ncnc32)C1 [Compound 1, (R)—N—(4-([1,2,4]triazolo[1,5-a]pyridin-7-yloxy)-2,3-dimethylphenyl)-1-(1-acryloylpiperidin-3-yl)-4-amino-1H-pyrazolo[3,4-d]pyrimidine-3-carboxamide]	0.0567	1.38	2.62	0.0322	1.81	0.111
C=CC(=O)N1CCC[C@@H](n2nc(C(=O)Nc3ccc(Oc4ccn5ncnc5c4)c(C)c3)c3c(N)ncnc32)C1 [Compound 2, (R)—N—(4-([1,2,4]triazolo[1,5-a]pyridin-7-yloxy)-3-methylphenyl)-1-(1-acryloylpiperidin-3-yl)-4-amino-1H-pyrazolo[3,4-d]pyrimidine-3-carboxamide]	0.0958	3.27	3.98	0.0559	2.24	0.193
C=CC(=O)N1CCC[C@@H](n2nc(C(=O)Nc3ccc(Oc4ccn5ncnc5c4)c(Cl)c3)c3c(N)ncnc32)C1 [Compound 3, (R)—N—(4-([1,2,4]triazolo[1,5-a]pyridin-7-yloxy)-3-chlorophenyl)-1-(1-acryloylpiperidin-3-yl)-4-amino-1H-pyrazolo[3,4-d]pyrimicline-3-carboxamide]	0.0786	2.11	2.61	0.0455	1.46	0.0981
C=CC(=O)N1CCC[C@@H](n2nc(C(=O)Nc3ccc(Cn4ccnc4)c(C)c3)c3c(N)ncnc32)C1 [Compound 4]	1.44	7.16	6.04	3.16	4.53	3.85
C=CC(=O)N1CCC[C@@H](n2nc(C(=O)Nc3cc(C)cc(CC(=O)N(C)C)c3)c3c(N)ncnc32)C1 [Compound 5]	2.39	8.96	7.62	4.47	5.72	4.08
C=CC(=O)N1CCC[C@@H](n2nc(C(=O)Nc3ccc(C(=O)N4CCn5ccnc5C4)c(C)c3)c3c(N)ncnc32)C1 [Compound 6]	5.64	9.42	7.84	7.56	6.81	5.79
C=CC(=O)N1CCC[C@@H](n2nc(C(=O)Nc3ccc(C(=O)N4CCn5ncnc5C4)c(C)c3)c3c(N)ncnc32)C1 [Compound 7]	6.29	8.79	7.72	8.84	6.02	6.3
C=CC(=O)N1CCC[C@@H](n2nc(C(=O)Nc3ccc(CN4CCn5ncnc5C4)c(C)c3)c3c(N)ncnc32)C1 [Compound 8]	1.39	9.46	6.75	1.85	4.27	3.24
C=CC(=O)N1CCC[C@@H](n2nc(C(=O)Nc3ccc(CN4CCn5ccnc5C4)c(C)c3)c3c(N)ncnc32)C1 [Compound 9]	1.29	7.92	5.59	1.38	1.98	2.63
C=CC(=O)N1CCC[C@@H](n2nc(C(=O)Nc3ccc(-n4ccnc4)c(C)c3)c3c(N)ncnc32)C1 [Compound 10]	–	–	–	0.58	–	3.43
C=CC(=O)N1CCC[C@@H](n2nc(C(=O)Nc3ccc(Cn4cncn4)c(C)c3)c3c(N)ncnc32)C1 [Compound 11]	–	> 10	–	1.33	–	5.96
C=CC(=O)N1CCC[C@@H](n2nc(C(=O)Nc3ccc(CC(=O)N(C)C)c(C)c3C)c3c(N)ncnc32)C1 [TAS0728, reference compound]	0.0643	0.921	4.48	0.206	3.82	0.164

Reference: patent publication US20230295167A1, “POTENT AND SELECTIVE INHIBITORS OF HER2” (DANA-FARBER CANCER INSTITUTE, INC., priority 2020, published 2023)
